The values that follow come from US4745124A, “Orally effective anti-hypertensive agents” (priority 1983, dated 1988).

Experiment [1] has as its target T1, angiotensin converting enzyme (human urinary ACE) (Homo sapiens, UniProt P12821).
T1 construct: ACE purified from human urine; from tissue; host or cells: human urine (ultrafiltration and Sephacryl S-200, first eluting peak; prepared as in Ryan et al., Tissue and Cell 10, 555 (1978))
As to the kind of experiment: ACE activity assay, I50 (Example 216A). In kind it is biochemical. Particulars: Benzoyl-GlyHisLeu 1×10^-4 M, Hepes pH 8.0, 37° C, in vitro.

For experiment [2], the system named is pressor effects of angiotensin I. As to the kind of experiment: oral effectiveness: blood pressure response to angiotensin I in anesthetized rats. Type of experiment: in vivo, rat. Particulars: for Blood pressure response to angiotensin I (% of control): oral 10 mg, Ex. 225; for Blood Pressure Response to 400 ng/kg of Angiotensin I: oral 20 μmol/kg. An outline of the steps: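 Fasted rats under pentobarbital anesthesia (50-60 mg/kg i.p.), ventilated, with carotid arterial pressure recorded; i.v. angiotensin I (80 ng, 160 ng or 400 ng/kg) or angiotensin II (80 ng) challenges repeated at timed intervals after oral gavage of compound (2-20 mg/kg, 10 mg, 17 or 23 μmol/kg) in aqueous NaHCO3.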

For experiment [3] the test system is unchanged. Kind of experiment: intravenous effectiveness: blood pressure response to angiotensin I in anesthetized rats. Particulars: for t1/2: recovery of one half of lost responsiveness to angiotensin I 400 ng/kg; for Blood Pressure Response to 400 ng/kg Angiotensin I: i.v. 2 μmol/kg, Ex. 232. Type of experiment: in vivo, rat. As for the experimental part:
Anesthetized rats were prepared as described in Example 228. After the responsiveness of a given rat to angiotensin I was established, the named compound at 2 μmol/kg, in a volume of 15 μl of 0.01N sodium bicarbonate, was injected via a femoral vein. At timed intervals, the effects of angiotensin I, 400 ng/kg, on mean arterial blood pressure were tested. Results are shown below:
Anesthetized rats were prepared as described in Example 231. After the responsiveness of a given rat to angiotensin I was established, the named compound, at 2 μmol/kg, in a volume of 15 μl of 0.01N sodium bicarbonate, was injected via a femoral vein. At timed intervals, the effects of angiotensin I, 400 ng/kg, on mean arterial blood pressure were tested. Results are shown below:
Anesthetized rats were prepared as described in Example 239. The animals were administered the named compound via a femoral vein in 15 μl of 0.01N sodium bicarbonate, after the control response to 400 ng/kg of angiotensin I was measured. […] The time required for recovery of one half of the lost responsiveness to angiotensin I, following injection of the named compound, was designated t1/2. […] Results are shown for two dose levels:
Anesthetized rats were prepared as described in Example 242. The named compound was administered intravenously via a femoral vein, at the stated dose, in 15 μl of 0.01N sodium bicarbonate. The response to intravenous administration was a rapid decrease in responsiveness to Angtiotensin I, 400 ng/kg, followed by a gradual recovery to the pretreatment level of responsiveness. The time required for recovery of one half the lost responsiveness to angiotensin I, following injection of the named compound, is designated t1/2. […] Results are shown for the three dose levels:
The intravenous effectiveness of the named compound was examined by following the procedure described in Example 244 except that 1 μmole/kg of the drug was given intravenously. The results are shown below:
The intravenous effectiveness of the named compound was examined by following the procedure described in Example 246 except that 1 μmole/Kg of the drug was given intravenously.

[4] abbreviates: human urinary ACE, read-out: I50.

Read-outs that look alike come from different tables or passages of the source. No end group written: not given here. *: point of attachment. Bz = O=C(c1ccccc1)*

T1 sequence (P12821 30-1232 limits assumed): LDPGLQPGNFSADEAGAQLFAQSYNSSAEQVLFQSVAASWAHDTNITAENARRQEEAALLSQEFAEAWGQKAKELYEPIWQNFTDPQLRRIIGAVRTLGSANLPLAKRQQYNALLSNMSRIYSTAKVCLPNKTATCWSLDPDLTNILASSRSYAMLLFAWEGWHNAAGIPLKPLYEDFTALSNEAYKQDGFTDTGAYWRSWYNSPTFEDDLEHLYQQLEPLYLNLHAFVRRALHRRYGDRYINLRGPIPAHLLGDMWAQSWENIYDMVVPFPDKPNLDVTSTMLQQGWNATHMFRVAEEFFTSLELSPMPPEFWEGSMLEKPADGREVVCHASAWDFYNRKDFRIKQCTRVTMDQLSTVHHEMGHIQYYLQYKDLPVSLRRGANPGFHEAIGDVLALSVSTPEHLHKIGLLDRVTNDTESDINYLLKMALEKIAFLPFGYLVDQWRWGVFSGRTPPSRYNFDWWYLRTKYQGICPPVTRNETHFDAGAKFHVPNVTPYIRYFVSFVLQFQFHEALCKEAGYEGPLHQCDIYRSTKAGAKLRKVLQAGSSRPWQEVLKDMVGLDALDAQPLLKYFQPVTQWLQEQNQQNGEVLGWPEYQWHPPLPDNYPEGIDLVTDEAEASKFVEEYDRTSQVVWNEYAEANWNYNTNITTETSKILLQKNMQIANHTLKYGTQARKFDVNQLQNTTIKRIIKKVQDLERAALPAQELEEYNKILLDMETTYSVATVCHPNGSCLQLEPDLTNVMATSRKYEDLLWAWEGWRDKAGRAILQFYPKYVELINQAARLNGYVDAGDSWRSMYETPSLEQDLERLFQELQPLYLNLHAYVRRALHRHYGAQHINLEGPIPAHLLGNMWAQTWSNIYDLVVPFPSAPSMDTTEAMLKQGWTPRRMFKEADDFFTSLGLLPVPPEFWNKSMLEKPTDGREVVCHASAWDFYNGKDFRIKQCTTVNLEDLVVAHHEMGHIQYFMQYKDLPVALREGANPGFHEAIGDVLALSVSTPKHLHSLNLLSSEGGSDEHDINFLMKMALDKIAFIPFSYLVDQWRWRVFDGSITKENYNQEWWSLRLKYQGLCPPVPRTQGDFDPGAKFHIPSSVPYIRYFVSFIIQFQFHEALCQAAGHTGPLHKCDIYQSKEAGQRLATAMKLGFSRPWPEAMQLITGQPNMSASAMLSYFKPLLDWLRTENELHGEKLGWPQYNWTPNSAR

On to `CC(SC(=O)C(Cc1ccccc1)NC(=O)c1ccccc1)C(=O)N1CC=C[C@H]1C(=O)O` (stereo partly drawn) [(B), N-(2-benzoylphenylalanylthiopropanoyl)-L-3,4-dehydroproline], for which, in experiment [1] (setting [4]), the IC50 amounted to 0.003 µM. The “Blood pressure response to angiotensin I (% of control)” value in experiment [2] (3 min) stood at 100%; in experiment [2] (9 min), 81%; in experiment [2] (14 min), 74%; in experiment [2] (24 min), 74%; in experiment [2] (28 min) it was 74%; in experiment [2] (34 min), 63%. In addition, the “Blood pressure response to angiotensin I (% of control)” value in experiment [2] (44 min) came out at 56%; in experiment [2] (54 min), 44%; in experiment [2] (64 min) it was 56%; in experiment [2] (85 min) it was 37%; in experiment [2] (94 min), 44%; in experiment [2] (104 min), 74%. For the same compound, the “Blood pressure response to angiotensin I (% of control)” value in experiment [2] (114 min) was determined as 56%; in experiment [2] (146 min) it was 100%.

On to `O=C(NC(Cc1ccccc1)C(=O)SCCC(=O)N1CCC[C@H]1C(=O)O)c1ccccc1` (stereo partly drawn) [(III), 3-benzoylphenylalanylthio-propanoyl-L-proline], for which the IC50 in experiment [1] (setting [4]) came out at 0.7 µM.

Consider `C[C@H](CSC(=O)[C@H](Cc1ccccc1)NC(=O)c1ccccc1)C(=O)N1CCC[C@H]1C(=O)O` [Example 196, N-[3-(benzoyl-L-phenylalanylthio)-2-D-methyl-propanoyl]-L-proline], for which the IC50 in experiment [1] (setting [4]) amounted to 0.016 µM.

As to `C[C@H](CSC(=O)[C@@H](Cc1ccccc1)NC(=O)c1ccccc1)C(=O)N1CCC[C@H]1C(=O)O` [Example 197, N-[3-(benzoyl-D-phenylalanylthio)-2-D-methyl-propanoyl]-L-proline], the IC50 in experiment [1] (setting [4]) came out at 0.009 µM.

Consider `N[C@@H](CS)C(=O)O` [L-cysteine], for which the IC50 in experiment [1] (I50, human urinary ACE) was 200 µM.

Take `O=C(O)[C@@H]1CCCN1` [L-proline]: the IC50 in experiment [1] (setting [4]) amounted to 1000 µM.

As for `C[C@H](CSC(=O)CNC(=O)c1ccccc1)C(=O)N1CCC[C@H]1C(=O)O` [N-alpha-[3-(N-alpha-benzoylglycylthio)-2-D-methylpropanoyl]-L-proline], the “Blood Pressure Response to 400 ng/kg of Angiotensin I” value in experiment [2] (1 min, Ex. 239) is 95 % of Control; in experiment [2] (6 min, Ex. 239), 95 % of Control; in experiment [2] (11 min, Ex. 239) it was 95 % of Control; in experiment [2] (22 min, Ex. 239), 92 % of Control; in experiment [2] (28 min, Ex. 239) it was 68 % of Control; in experiment [2] (33 min, Ex. 239) it was 61 % of Control. Also, the “Blood Pressure Response to 400 ng/kg of Angiotensin I” value in experiment [2] (39 min, Ex. 239) is 58 % of Control; in experiment [2] (45 min, Ex. 239), 47 % of Control; in experiment [2] (60 min, Ex. 239) it was 47 % of Control; in experiment [2] (67 min, Ex. 239), 45 % of Control; in experiment [2] (74 min, Ex. 239), 47 % of Control; in experiment [2] (82 min, Ex. 239), 47 % of Control. Moreover, the “Blood Pressure Response to 400 ng/kg of Angiotensin I” value in experiment [2] (92 min, Ex. 239) is 47 % of Control; in experiment [2] (137 min, Ex. 239), 55 % of Control; in experiment [2] (142 min, Ex. 239) it was 55 % of Control; in experiment [2] (152 min, Ex. 239), 47 % of Control; in experiment [2] (185 min, Ex. 239), 63 % of Control; in experiment [2] (207 min, Ex. 239), 79 % of Control. Moreover, in experiment [2] (230 min, Ex. 239), the “Blood Pressure Response to 400 ng/kg of Angiotensin I” value is 74 % of Control. Moreover, the results for the t1/2 in experiment [3] (i.v. 0.23 μmol/kg) and in experiment [3] (i.v. 0.7 μmol/kg) were 26 min and 36 min, respectively.

As for `C[C@H](CSC(=O)[C@H](Cc1ccccc1)NC(=O)[C@H](CCCCNC(=O)OC(C)(C)C)NC(=O)C1CCCC1)C(=O)N1CCC[C@H]1C(=O)O` [N-alpha-[3-(N-alpha-cyclopentylcarbonyl-N-epsilon-tert-butyloxycarbonyl-L-lysyl-L-phenylalanylthio)-2-D-methylpropanoyl]-L-proline], the IC50 in experiment [1] (setting [4]) turned out to be 0.025 µM.

As to `C[C@H](CSC(=O)[C@H](Cc1ccccc1)NC(=O)OC(C)(C)C)C(=O)N1CCC[C@H]1C(=O)O` [N-alpha-[3-(N-alpha-tert-butyloxycarbonyl-L-phenylalanylthio)-2-D-methylpropanoyl]-L-proline], the “Blood Pressure Response to 400 ng/kg of Angiotensin I” value in experiment [2] (3 min, Ex. 233) is recorded as 100 % of Control; in experiment [2] (11 min, Ex. 233) it was 43 % of Control; in experiment [2] (22 min, Ex. 233) it was 27 % of Control; in experiment [2] (29 min, Ex. 233), 24 % of Control; in experiment [2] (34 min, Ex. 233), 22 % of Control; in experiment [2] (51 min, Ex. 233) it was 19 % of Control. Also, the “Blood Pressure Response to 400 ng/kg Angiotensin I” value was 0 % of Control in experiment [3] (0.5 min); 19 % of Control in experiment [3] (3 min); 19 % of Control in experiment [3] (9 min); 22 % of Control in experiment [3] (13 min); 31 % of Control in experiment [3] (18 min); 31 % of Control in experiment [3] (22 min). The “Blood Pressure Response to 400 ng/kg Angiotensin I” value in experiment [3] (34 min) is listed as 50 % of Control; in experiment [3] (47 min), 63 % of Control; in experiment [3] (65 min), 78 % of Control; in experiment [3] (103 min), 75 % of Control; in experiment [3] (113 min), 94 % of Control.

With `O=C(N[C@@H](Cc1ccccc1)C(=O)O)c1ccccc1` [benzoyl-Phe], the IC50 in experiment [1] (setting [4]) was 400 µM.

As to `N[C@@H](CCC(=O)N[C@@H](CS)C(=O)NCC(=O)O)C(=O)O` [γ Glu--Cys--Gly (glutathione), γ Glu--Cys--Gly], in experiment [1] (setting [4]), the IC50 came out at 40 µM.

With < Glu--Cys--Pro, in experiment [1] (setting [4]), the IC50 stood at 4 µM.

For Bz-Gly-Cys-Pro, the IC50 in experiment [1] (setting [4]) was 0.5 µM.

Bz-Phe-Ala-Pro: the IC50 in experiment [1] (setting [4]) came out at 0.1 µM.

Regarding Bz-Phe-Cys-Pro, the IC50 in experiment [1] (setting [4]) amounted to 0.6 µM.

In the case of Cys--Pro, the IC50 in experiment [1] (setting [4]) worked out at 11 µM.

As to Phe--Ala--Pro, in experiment [1] (setting [4]), the IC50 stood at 0.2 µM.

On to acetyl-Cys--Pro, for which, in experiment [1] (setting [4]), the IC50 was found to be 5 µM.

In the case of γ Glu--Cys--Pro, in experiment [1] (setting [4]), the IC50 came to 11 µM.
